Target: T1, hSOS1 enzyme / KRAS (G12C), GST-Tag, GDP-bound protein (Homo sapiens, UniProt Q07889)
T1 sequence (Q07889 564-1049 limits assumed): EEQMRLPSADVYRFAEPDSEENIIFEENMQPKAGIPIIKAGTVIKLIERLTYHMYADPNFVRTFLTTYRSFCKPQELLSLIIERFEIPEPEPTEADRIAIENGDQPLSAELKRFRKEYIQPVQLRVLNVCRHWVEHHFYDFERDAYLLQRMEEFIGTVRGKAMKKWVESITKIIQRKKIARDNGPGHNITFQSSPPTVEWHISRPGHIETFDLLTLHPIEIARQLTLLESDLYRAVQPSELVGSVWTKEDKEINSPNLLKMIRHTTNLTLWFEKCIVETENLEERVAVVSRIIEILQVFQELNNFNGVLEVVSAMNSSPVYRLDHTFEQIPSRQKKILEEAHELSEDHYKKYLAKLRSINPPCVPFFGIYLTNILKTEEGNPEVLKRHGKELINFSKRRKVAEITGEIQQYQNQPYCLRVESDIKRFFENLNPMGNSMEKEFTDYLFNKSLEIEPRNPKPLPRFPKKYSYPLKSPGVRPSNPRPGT
Test: SOS1-mediated KRAS guanine nucleotide exchange (GEF) assay, HTRF ("On Assay")
Format: biochemical
Settings: 1 μM compound
Summary of the method: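 Compounds were preincubated 10 min at 25 °C with GDP-loaded GST-KRAS G12C and Tb-anti-GST (working solution 100 nM/2 nM) in HEPES pH 7, 5 mM MgCl2. hSOS1 plus DY-647P-labelled GTP (working solution 20 nM/200 nM) was then added for 10 min. HTRF was read at 665/615 nm with 320 nm excitation, and wells lacking SOS1 served as negative control.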

Q: Which inhibition at 1 µM does the source give for `C[C@@H](Nc1nc(N(C)CCN(C)C)nc2cnc(N3CCCC3)cc12)c1cc(N)cc(C(F)(F)F)c1` [Example 10, (R)—N4-(1-(3-amino-5-(trifluoromethyl)phenyl)ethyl)-N2-(2-(dimethylamino)ethyl)-N2-methyl-6-(pyrrolidin-1-yl)pyrido[3,4-d]pyrimidine-2,4-diamine] here?
A: Its inhibition at 1 µM is ≥ 50%.

Q: How did the inhibition at 1 µM turn out when `C[C@@H](Nc1nc(Cl)nc2cnc(N3CCN(C4CCC4)CC3)cc12)c1cc(N)cc(C(F)(F)F)c1` [Example 28, (R)—N-(1-(3-amino-5-(trifluoromethyl)phenyl)ethyl)-2-chloro-6-(4-cyclobutylpiperazin-1-yl)pyrido[3,4-d]pyrimidin-4-amine] was run?
A: The inhibition at 1 µM was ≥ 50%.

Q: How did the inhibition at 1 µM turn out when `C[C@@H](Nc1nc(N(C)C)nc2cnc(N3CCC(F)CC3)cc12)c1cc(N)cc(C(F)(F)F)c1` [Example 43, (R)—N4-(1-(3-amino-5-(trifluoromethyl)phenyl)ethyl)-6-(4-fluoropiperidin-1-yl)-N2,N2-dimethylpyrido[3,4-d]pyrimidine-2,4-diamine] was run?
A: The inhibition at 1 µM was ≥ 50%.

Q: Which inhibition at 1 µM does the source give for `C[C@@H](Nc1nc(Cl)nc2cnc(N3CCC(F)(F)CC3)cc12)c1cc(N)cc(C(F)(F)F)c1` [Example 21, (R)—N-(1-(3-amino-5-(trifluoromethyl)phenyl)ethyl)-2-chloro-6-(4,4-difluoropiperidin-1-yl)pyrido[3,4-d]pyrimidin-4-amine] here?
A: Its inhibition at 1 µM is ≥ 50%.

Q: `CNc1nc(N[C@H](C)c2cc(N)cc(C(F)(F)F)c2)c2cc(N3CCC(F)CC3)ncc2n1` [Example 33, (R)—N4-(1-(3-amino-5-(trifluoromethyl)phenyl)ethyl)-6-(4-fluoropiperidin-1-yl)-N2-methylpyrido[3,4-d]pyrimidine-2,4-diamine] was tested. Which inhibition at 1 µM did it give?
A: The inhibition at 1 µM was ≥ 50%.

Q: `CNc1nc(N[C@H](C)c2cc(N)cc(C(F)(F)F)c2)c2cc(N3CCOCC3)ccc2n1` [Example 74, (R)—N4-(1-(3-amino-5-(trifluoromethyl)phenyl)ethyl)-N2-methyl-6-morpholinoquinazoline-2,4-diamine] was tested. Which inhibition at 1 µM did it give?
A: Its inhibition at 1 µM is ≥ 50%.

Q: With `CCN1CCN(c2ccc3nc(Cl)nc(N[C@H](C)c4cc(N)cc(C(F)(F)F)c4)c3c2)CC1` [Example 73, (R)—N-(1-(3-amino-5-(trifluoromethyl)phenyl)ethyl)-2-chloro-6-(4-ethylpiperazin-1-yl)quinazolin-4-amine] as the molecule, how does the inhibition at 1 µM read?
A: Its inhibition at 1 µM is ≥ 50%.

Q: With `Cc1nnc(N[C@H](C)c2cc(N)cc(C(F)(F)F)c2)c2cc(N3CCOCC3)cnc12` [Example 87, (R)—N-(1-(3-amino-5-(trifluoromethyl)phenyl)ethyl)-8-methyl-3-morpholinopyrido[2,3-d]pyridazin-5-amine] as the molecule, how does the inhibition at 1 µM read?
A: The inhibition at 1 µM was ≥ 50%.

Q: For `CCN1CCN(c2cc3c(N[C@H](C)c4cc(N)cc(C(F)(F)F)c4)nc(N(C)C)nc3cn2)CC1` [Example 49, (R)—N4-(1-(3-amino-5-(trifluoromethyl)phenyl)ethyl)-6-(4-ethylpiperazin-1-yl)-N2,N2-dimethylpyrido[3,4-d]pyrimidine-2,4-diamine], which inhibition at 1 µM is on record?
A: Its inhibition at 1 µM is ≥ 50%.

Q: Which inhibition at 1 µM does the source give for `C[C@@H](Nc1nc(Cl)nc2cnc(N3CCC(F)CC3)cc12)c1cc(N)cc(C(F)(F)F)c1` [Example 22, (R)—N-(1-(3-amino-5-(trifluoromethyl)phenyl)ethyl)-2-chloro-6-(4-fluoropiperidin-1-yl)pyrido[3,4-d]pyrimidin-4-amine] here?
A: The inhibition at 1 µM was ≥ 50%.

Q: `CCN1CCN(c2cc3c(N[C@H](C)c4cc(N)cc(C(F)(F)F)c4)cnnc3cn2)CC1` [Example 85, (R)—N-(1-(3-amino-5-(trifluoromethyl)phenyl)ethyl)-6-(4-ethylpiperazin-1-yl)pyrido[3,4-c]pyridazin-4-amine] was tested. Which inhibition at 1 µM did it give?
A: Its inhibition at 1 µM is ≥ 50%.

Q: With `CNc1nc(N[C@H](C)c2cc(N)cc(C(F)(F)F)c2)c2cc(N3CCN(C)CC3)ncc2n1` [Example 31, (R)—N4-(1-(3-amino-5-(trifluoromethyl)phenyl)ethyl)-N2-methyl-6-(4-methylpiperazin-1-yl)pyrido[3,4-d]pyrimidine-2,4-diamine] as the molecule, how does the inhibition at 1 µM read?
A: Its inhibition at 1 µM is ≥ 50%.

Q: For `C[C@@H](Nc1nc(N2CCC2)nc2cnc(N(C)C)cc12)c1cc(N)cc(C(F)(F)F)c1` [Example 53, (R)—N4-(1-(3-amino-5-(trifluoromethyl)phenyl)ethyl)-2-(azetidin-1-yl)-N6,N6-dimethylpyrido[3,4-d]pyrimidine-4,6-diamine], which inhibition at 1 µM is on record?
A: The inhibition at 1 µM was ≥ 50%.

Q: `CCN1CCN(c2cnc3c(C)nnc(N[C@H](C)c4cc(N)cc(C(F)(F)F)c4)c3c2)CC1` [Example 86, (R)—N-(1-(3-amino-5-(trifluoromethyl)phenyl)ethyl)-3-(4-ethylpiperazin-1-yl)-8-methylpyrido[2,3-d]pyridazin-5-amine] was tested. Which inhibition at 1 µM did it give?
A: The inhibition at 1 µM was ≥ 50%.

Q: Which inhibition at 1 µM does the source give for `COc1nc(N[C@H](C)c2cc(N)cc(C(F)(F)F)c2)c2cc(N3CCOCC3)ncc2n1` [Example 57, (R)—N-(1-(3-amino-5-(trifluoromethyl)phenyl)ethyl)-2-methoxy-6-morpholinopyrido[3,4-d]pyrimidin-4-amine] here?
A: The inhibition at 1 µM was ≥ 50%.

From patent US20240425501A1, “NOVEL BICYCLIC HETEROARYL DERIVATIVES AS SOS1:KRAS PROTEINPROTEIN INTERACTION INHIBITORS” (SATYARX PHARMA INNOVATIONS PVT LTD, priority 2021, published 2024)
